Results taken from US20260151372A1, “AZOTOMYCIN PRODRUGS WITH PREFERENTIAL TUMOR DELIVERY” (The Johns Hopkins University, priority 2022, published 2026).

Columns and labels:
Assay type in all cases: in vitro ADME
[1] = Plasma stability in human plasma; conditions: 37° C.
Method: (§1) In vitro stability studies were done using CES1KO mouse plasma, human plasma, CES1-KO mouse liver, and human liver microsomes as previously described. For tissue homogenate stability studies, washed tissue was diluted 10-fold in 0.1 M potassium phosphate buffer and homogenized using probe sonication. Crude homogenate was then aliquoted to 1 mL, and spiked with 10 mM stock of the analyte in DMSO to achieve a 10 μM final concentration. The plasma stability of the prodrugs was determined by spiking the analyte in 1 mL of plasma. The plasma and tissues were incubated in an orbital shaker at 37° C. Stability in human liver microsomes was assessed at a final prodrug concentration of 1 μM with 0.2 mg/mL protein for microsomes. All the stability studies were conducted at predetermined times (0 and 60 min), where 50 μL aliquots of the mixture in triplicate were removed and the reaction was quenched by addition of 5 times the volume of ice-cold methanol spiked with the internal standard (losartan: 0.5 μM). The samples were vortex-mixed for 30 s and centrifuged at 10,000 g for 10 min at 4° C. An amount of 50 μL of the supernatant was diluted with 50 μL of water and transferred to a 250 μL polypropylene vial sealed with a Teflon cap. Prodrug disappearance was monitored over time using liquid chromatography and mass spectrometry (LC-MS).
(§2) Analyses were performed on a Dionex ultra high-performance LC system coupled with Q Exactive Focus orbitrap mass spectrometer (Thermo Fisher Scientific Inc., Waltham MA). Separation was achieved using Agilent Eclipse Plus column (100×2.1 mm i.d., maintained at 35° C.) packed with a 1.8 μm C18 stationary phase. The mobile phase consisted of 0.1% formic acid in water and 0.1% formic acid in acetonitrile, […] were operated at a flow rate of 0.3 mL/min for 7 min using gradient elution. The mass spectrometer controlled by Xcalibur software 4.0.27.13 (Thermo Scientific) was operated with a HESI ion source in positive ionization mode. Metabolites were identified in the full-scan mode (from m/z 50 to 1600) by comparing […] samples

[2] = Metabolic stability in human liver microsomes; conditions: 1 μM prodrug, 0.2 mg/mL protein
Method: as §1, §2

[3] = Metabolic stability in CES1-KO mouse liver homogenate; conditions: tissue homogenate, 10 μM, 37° C.
Method: as §1, §2

[4] = Plasma stability in CES1KO mouse plasma; conditions: 37° C., 60 min
Method: as §1, §2

| Compound | Plasma Stability (% Remaining at 60 min) Human Plasma [1] [%] | Liver Stability (% Remaining at 60 min) Human Liver Microsomes [2] [%] | Liver Stability (% Remaining at 60 min) CES1^−/− Mouse Liver [3] [%] | Plasma Stability (% Remaining at 60 min) CES1^−/− Mouse Plasma [4] [%] |
| --- | --- | --- | --- | --- |
| [N-]=[N+]=CC(=O)CC[C@H](NC(=O)[C@H](CCC(=O)C=[N+]=[N-])NC(=O)CC[C@H](N)C(=O)O)C(=O)O [Azotomycin] | 74.3 ± 1.20 | 23.7 ± 0.333 | 89.7 ± 0.88 | 105 ± 7.64 |
| CC(C)(C)OC(=O)[C@H](CCC(=O)C=[N+]=[N-])NC(=O)[C@H](CCC(=O)C=[N+]=[N-])NC(=O)CC[C@H](N)C(=O)OC(C)(C)C [Prodrug P1, tert-Butyl (S)-2-((S)-2-((S)-4-amino-5-(tert-butoxy)-5-oxopentanamido)-6-diazo-5-oxohexanamido)-6-diazo-5-oxohexanoate] | 104 ± 1.00 | 105 ± 0.859 | 87.0 ± 8.51 | 101 ± 3.38 |
| CC(=O)N[C@@H](CCC(=O)N[C@@H](CCC(=O)C=[N+]=[N-])C(=O)N[C@@H](CCC(=O)C=[N+]=[N-])C(=O)OC(C)(C)C)C(=O)OC(C)(C)C [Prodrug P2] | 110 ± 4.70 | 85.3 ± 7.88 | 100 ± 1.67 | 104 ± 2.31 |
| [N-]=[N+]=CC(=O)CC[C@H](NC(=O)[C@H](CCC(=O)C=[N+]=[N-])NC(=O)CC[C@H](N)C(N)=O)C(N)=O [Prodrug P5, (S)-4-Amino-N1-((S)-1-(((S)-1-amino-6-diazo-1,5-dioxohexan-2-yl)amino)-6-diazo-1,5-dioxohexan-2-yl)pentanediamide] | 97.3 ± 2.85 | 95.4 ± 0.595 | 4.33 ± 0.882 | 87.7 ± 8.51 |
| CC(=O)N[C@@H](CCC(=O)N[C@@H](CCC(=O)C=[N+]=[N-])C(=O)N[C@@H](CCC(=O)C=[N+]=[N-])C(N)=O)C(N)=O [Prodrug P6, (S)-4-Acetamido-N1-((S)-1-(((S)-1-amino-6-diazo-1,5-dioxohexan-2-yl)amino)-6-diazo-1,5-dioxohexan-2-yl)pentanediamide] | 105 ± 1.76 | 98.5 ± 0.676 | 85.0 ± 5.86 | 99.0 ± 3.51 |
| CN(C)CC(=O)N[C@@H](CCC(=O)N[C@@H](CCC(=O)C=[N+]=[N-])C(=O)N[C@@H](CCC(=O)C=[N+]=[N-])C(N)=O)C(N)=O [Prodrug P7, (S)—N1-((S)-1-(((S)-1-Amino-6-diazo-1,5-dioxohexan-2-yl)amino)-6-diazo-1,5-dioxohexan-2-yl)-4-(2-(dimethylamino)acetamido)pentanediamide] | 98.7 ± 2.67 | 95.3 ± 0.168 | 109 ± 10.0 | 98.0 ± 12.5 |
| CN(C)CC(=O)N[C@@H](Cc1c[nH]c2ccccc12)C(=O)N[C@@H](CCC(=O)N[C@@H](CCC(=O)C=[N+]=[N-])C(=O)N[C@@H](CCC(=O)C=[N+]=[N-])C(N)=O)C(N)=O [Prodrug P8, (S)—N1-((S)-1-(((S)-1-Amino-6-diazo-1,5-dioxohexan-2-yl)amino)-6-diazo-1,5-dioxohexan-2-yl)-4-((S)-2-(2-(dimethylamino)acetamido)-3-(1H-indol-3-yl)propanamido)pentanediamide] | 109 ± 1.00 | 95.8 ± 0.141 | 49.7 ± 0.333 | 99.3 ± 1.45 |
| CC(C)OC(=O)[C@H](CCC(=O)C=[N+]=[N-])NC(=O)[C@H](CCC(=O)C=[N+]=[N-])NC(=O)CC[C@H](N)C(=O)OC(C)C [Prodrug P9, Isopropyl (S)-2-((S)-2-((S)-4-amino-5-isopropoxy-5-oxopentanamido)-6-diazo-5-oxohexanamido)-6-diazo-5-oxohexanoate] | 85.9 ± 3.63 | >100 | 0.320 ± 0.026 | 84.3 ± 10.5 |
| [N-]=[N+]=CC(=O)CC[C@H](NC(=O)[C@H](CCC(=O)C=[N+]=[N-])NC(=O)CC[C@H](NC(=O)CN)C(=O)[O-])C(=O)[O-].[Na+].[Na+] [Prodrug P10, Sodium (S)-2-((S)-2-((S)-4-(2-aminoacetamido)-4-carboxylatobutanamido)-6-diazo-5-oxohexanamido)-6-diazo-5-oxohexanoate] | 90.5 ± 6.35 | 90.4 ± 4.10 | 90.4 ± 2.76 | 104 ± 3.67 |
| CCOC(=O)[C@H](CCC(=O)N[C@@H](CCC(=O)C=[N+]=[N-])C(=O)N[C@@H](CCC(=O)C=[N+]=[N-])C(=O)[O-])NC(=O)CN(C)C.[Na+] [Prodrug P11, Sodium (6S,11S,14S)-11,14-bis(4-diazo-3-oxobutyl)-6-(ethoxycarbonyl)-2-methyl-4,9,12-trioxo-2,5,10,13-tetraazapentadecan-15-oate] | 83.6 ± 1.76 | 103 ± 4.97 | 96.3 ± 1.80 | 91.8 ± 4.16 |
| CN(C)CC(=O)N[C@@H](CCC(=O)N[C@@H](CCC(=O)C=[N+]=[N-])C(=O)N[C@@H](CCC(=O)C=[N+]=[N-])C(=O)[O-])C(=O)[O-].[Na+].[Na+] [Prodrug P12, Sodium (6S,11S,14S)-6-carboxylato-11,14-bis(4-diazo-3-oxobutyl)-2-methyl-4,9,12-trioxo-2,5,10,13-tetraazapentadecan-15-oate] | 76.2 ± 7.25 | 99.6 ± 3.50 | 111 ± 9.27 | 95.6 ± 0.44 |
| CCOC(=O)[C@H](CCC(=O)C=[N+]=[N-])NC(=O)[C@H](CCC(=O)C=[N+]=[N-])NC(=O)CC[C@H](NC(=O)CN(C)C)C(=O)O [Prodrug P13, N^5—((S)-6-diazo-1-(((S)-6-diazo-1-ethoxy-1,5-dioxohexan-2-yl)amino)-1,5-dioxohexan-2-yl)-N^2-(dimethylglycyl)-L-glutamine] | 86.6 ± 2.69 | 109 ± 2.22 | 1.55 ± 0.77 | 107 ± 6.6 |
| CN(C)CC(=O)N[C@@H](CCC(=O)N[C@@H](CCC(=O)C=[N+]=[N-])C(=O)N[C@@H](CCC(=O)C=[N+]=[N-])C(=O)[O-])C(=O)OC(C)(C)C.[Na+] [Prodrug P14, Sodium (6S,11S,14S)-6-(tert-butoxycarbonyl)-11,14-bis(4-diazo-3-oxobutyl)-2-methyl-4,9,12-trioxo-2,5,10,13-tetraazapentadecan-15-oate] | 96.2 ± 3.21 | 103 ± 2.31 | 82.4 ± 4.03 | 111 ± 4.09 |
| CN(C)CC(=O)N[C@@H](CCC(=O)N[C@@H](CCC(=O)C=[N+]=[N-])C(=O)N[C@@H](CCC(=O)C=[N+]=[N-])C(=O)OC(C)(C)C)C(=O)[O-].[Na+] [Prodrug P15, Sodium N^5—((S)-1-(((S)-1-(tert-butoxy)-6-diazo-1,5-dioxohexan-2-yl)amino)-6-diazo-1,5-dioxohexan-2-yl)-N^2-(dimethylglycyl)-L-glutaminate] | 104 ± 8.45 | 93.2 ± 4.29 | 99.9 ± 3.45 | >100 |
